Where a name gives a salt, the structure may show the parent alone. Read-outs that look alike come from different tables or passages of the source.
Tested on: mice
Assay: Haffner test ("Tail clip test") in mice
Type: in vivo, mouse (male CD mice)
Conditions: Mus musculus, read-out: ED50 (Haffner test in mice)
Description: METHOD: Haffner Test ("Tail clip test") in Mice
The Haffner test is a standard procedure for determining the pain-inhibiting effect of powerful analgesics, mostly of the opioid type, in mice. The method largely corresponds to the one described by Bianchi C. and Franceschini J. (Brit. J. Pharmacol. 9:280, 1954; Experimental observations on Haffner's method for testing analgesic drugs).
Male CD mice (from Charles River, Sulzfeld, FRG) with an average weight of 30±5 grams were used. The animals were kept under standard conditions (temperature: 22±2° C., relative humidity: 55±10%, air exchange: 15-20 times per hour and 12/12 hours light/darkness cycle). The animals had unlimited access to food and water until the test began. During the test the animals were kept singly in Makrolon Type III cages with no bedding. A 3.5 cm arterial clamp was placed about 2 cm from the base of the tail and the pain reaction time was measured in seconds. Any active attempt by the animal to remove the clamp was assessed as a pain reaction. To prevent tissue damage, the test was stopped after at most 30 seconds in every case (cut off latency). In a preliminary test, mice with a pain reaction time of less than 5 seconds (base line latency) were selected for the actual test, which was carried out at specific intervals after the administration of the drug (test latency).
Corresponding quantities of test substances were dissolved in physiological saline solution for intravenous administration or in twice distilled water for oral administration. The total volume administered was 10 ml/kg of body weight in each case. Controls were given the same solvent but with no test substance. 8-10 mice were tested in each group.
The results were plotted as individual values (seconds), mean value±scattering (seconds) per group and as the percent of the maximum possible effect (% MPE=percent of Maximum Possible Effect). [formula] Significant differences between the control and test groups were calculated by means of an unpaired, two-sided Students T-test (*2P<0.05;**2P<0.01; 2P<0.001).
The ED50 value describes the dosage at which 50% of the maximum possible effect (MPE) is achieved. The ED50 value is calculated by linear regression between the dose and the % MPE.

SMILES: COC(=O)CCCCCCC(=O)O[C@H]1C=C[C@H]2[C@H]3Cc4ccc(O)c5c4[C@@]2(CCN3C)[C@H]1O5 [Example 22, 4,5α-Epoxy-6α-((6-methoxycarbonyl-hexylcarbonyl)-oxy)-17-methyl-morphinan-7-en-3-ol]
- ED50 (iv, 10 min, i.v., 10 min.): 0.0025 µmol/kg
- ED50 (iv, 0.5 h, i.v., 30 min.): 0.0033 µmol/kg
- ED50 (iv, 1 h, i.v., 60 min.): 0.005 µmol/kg
- ED50 (iv, 2 h, i.v., 120 min.): 0.022 µmol/kg
- ED50 (po, 0.5 h, p.o., 30 min.): 0.109 µmol/kg
- ED50 (po, 1 h, p.o., 60 min.): 0.208 µmol/kg
- ED50 (po, 2 h, p.o., 120 min.): 0.298 µmol/kg
- ED50 (po, 3 h, p.o., 180 min.): 0.315 µmol/kg

SMILES: CCOC(=O)CCCCCO[C@H]1C=C[C@H]2[C@H]3Cc4ccc(O)c5c4[C@@]2(CCN3C)[C@H]1O5 [Example 22]
- ED50 (iv, 10 min, i.v., 10 min.): 0.003 µmol/kg
- ED50 (iv, 0.5 h, i.v., 30 min.): 0.0037 µmol/kg
- ED50 (iv, 1 h, i.v., 60 min.): 0.01 µmol/kg
- ED50 (iv, 2 h, i.v., 120 min.): 0.012 µmol/kg
- ED50 (po, 0.5 h, p.o., 30 min.): 0.055 µmol/kg
- ED50 (po, 1 h, p.o., 60 min.): 0.09 µmol/kg
- ED50 (po, 2 h, p.o., 120 min.): 0.096 µmol/kg
- ED50 (po, 3 h, p.o., 180 min.): 0.086 µmol/kg

SMILES: CCOC(=O)CCCCO[C@H]1C=C[C@H]2[C@H]3Cc4ccc(O)c5c4[C@@]2(CCN3C)[C@H]1O5 [Example 25]
- ED50 (iv, 10 min, i.v., 10 min.): 0.0011 µmol/kg
- ED50 (iv, 0.5 h, i.v., 30 min.): 0.0057 µmol/kg
- ED50 (iv, 1 h, i.v., 60 min.): 0.0112 µmol/kg
- ED50 (iv, 2 h, i.v., 120 min.): 0.0129 µmol/kg
- ED50 (po, 0.5 h, p.o., 30 min.): 0.0201 µmol/kg
- ED50 (po, 1 h, p.o., 60 min.): 0.028 µmol/kg
- ED50 (po, 2 h, p.o., 120 min.): 0.031 µmol/kg
- ED50 (po, 3 h, p.o., 180 min.): 0.037 µmol/kg

SMILES: CN1CC[C@]23c4c5ccc(O)c4O[C@H]2[C@@H](OCCCCC#N)C=C[C@H]3[C@H]1C5 [Example 27]
- ED50 (iv, 10 min, i.v., 10 min.): 0.0059 µmol/kg
- ED50 (iv, 0.5 h, i.v., 30 min.): 0.0073 µmol/kg
- ED50 (iv, 1 h, i.v., 60 min.): 0.0154 µmol/kg
- ED50 (iv, 2 h, i.v., 120 min.): 0.038 µmol/kg
- ED50 (po, 0.5 h, p.o., 30 min.): 0.059 µmol/kg
- ED50 (po, 1 h, p.o., 60 min.): 0.073 µmol/kg
- ED50 (po, 2 h, p.o., 120 min.): 0.108 µmol/kg
- ED50 (po, 3 h, p.o., 180 min.): 0.178 µmol/kg

SMILES: CCCC(COC1C=CC2C3Cc4ccc(O)c5c4C2(CCN3C)C1O5)OC(C)=O (centres unmarked) [Example 32]
- ED50 (iv, 10 min, i.v., 10 min.): 0.001 µmol/kg
- ED50 (iv, 0.5 h, i.v., 30 min.): 0.003 µmol/kg
- ED50 (iv, 1 h, i.v., 60 min.): 0.0099 µmol/kg
- ED50 (iv, 2 h, i.v., 120 min.): 0.024 µmol/kg
- ED50 (po, 0.5 h, p.o., 30 min.): 0.068 µmol/kg
- ED50 (po, 1 h, p.o., 60 min.): 0.12 µmol/kg
- ED50 (po, 2 h, p.o., 120 min.): 0.154 µmol/kg
- ED50 (po, 3 h, p.o., 180 min.): 0.232 µmol/kg

SMILES: CCCC(O)CO[C@H]1C=C[C@H]2[C@H]3Cc4ccc(O)c5c4[C@@]2(CCN3C)[C@H]1O5 (some centres unmarked) [Example 33]
- ED50 (iv, 10 min, i.v., 10 min.): 0.0019 µmol/kg
- ED50 (iv, 0.5 h, i.v., 30 min.): 0.0046 µmol/kg
- ED50 (iv, 1 h, i.v., 60 min.): 0.0083 µmol/kg
- ED50 (iv, 2 h, i.v., 120 min.): 0.021 µmol/kg
- ED50 (po, 0.5 h, p.o., 30 min.): 0.029 µmol/kg
- ED50 (po, 1 h, p.o., 60 min.): 0.037 µmol/kg
- ED50 (po, 2 h, p.o., 120 min.): 0.051 µmol/kg
- ED50 (po, 3 h, p.o., 180 min.): 0.069 µmol/kg

SMILES: CC(=O)OCCCO[C@H]1C=C[C@H]2[C@H]3Cc4ccc(O)c5c4[C@@]2(CCN3C)[C@H]1O5 [Example 38]
- ED50 (iv, 10 min, i.v., 10 min.): 0.0003 µmol/kg
- ED50 (iv, 0.5 h, i.v., 30 min.): 0.0019 µmol/kg
- ED50 (iv, 1 h, i.v., 60 min.): 0.0036 µmol/kg
- ED50 (iv, 2 h, i.v., 120 min.): 0.079 µmol/kg
- ED50 (po, 0.5 h, p.o., 30 min.): 0.023 µmol/kg
- ED50 (po, 1 h, p.o., 60 min.): 0.027 µmol/kg
- ED50 (po, 2 h, p.o., 120 min.): 0.035 µmol/kg
- ED50 (po, 3 h, p.o., 180 min.): 0.043 µmol/kg

SMILES: CN1CC[C@]23c4c5ccc(O)c4O[C@H]2[C@@H](OCCCO)C=C[C@H]3[C@H]1C5 [Example 39]
- ED50 (po, 0.5 h, p.o., 30 min.): 0.027 µmol/kg
- ED50 (po, 1 h, p.o., 60 min.): 0.035 µmol/kg
- ED50 (po, 2 h, p.o., 120 min.): 0.149 µmol/kg
- ED50 (po, 3 h, p.o., 180 min.): 0.283 µmol/kg

SMILES: CN1CC[C@]23c4c5ccc(O)c4O[C@H]2[C@@H](O)C=C[C@H]3[C@H]1C5 [Morphine.HCl, reference compound]
- ED50 (iv, 10 min): 0.017 µmol/kg
- ED50 (iv, 0.5 h): 0.019 µmol/kg
- ED50 (iv, 1 h): 0.021 µmol/kg
- ED50 (iv, 2 h): 0.037 µmol/kg
- ED50 (po, 0.5 h): 0.279 µmol/kg
- ED50 (po, 1 h): 0.296 µmol/kg
- ED50 (po, 2 h): 0.539 µmol/kg
- ED50 (po, 3 h): 0.718 µmol/kg

Reference: US6150524A, “Morphine derivatives with analgesic activity” (priority 1995, dated 2000)
